Experimental data taken from PubChem BioAssay (NCI).
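Assay format: 96-well plates, 48-hour exposure. Definition used: TGI = concentration required for complete inhibition of growth.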

What was measured:
Test in all cases: NCI anticancer screen, dose series, 48 h
HOP-92 NSCLC = system: HOP-92 NSCLC
HS 578T breast = system: HS 578T breast
ACHN renal = system: ACHN renal
HCT-116 colon = system: HCT-116 colon
HL-60(TB) leukemia = system: HL-60(TB) leukemia
NCI-H23 lung = system: NCI-H23 lung
MDA-MB-435 = system: MDA-MB-435
LOX IMVI melanoma = system: LOX IMVI melanoma
DU-145 prostate = system: DU-145 prostate
RPMI-8226 leukemia = system: RPMI-8226 leukemia
SR leukemia = system: SR leukemia
UO-31 renal = system: UO-31 renal
U251 CNS = system: U251 CNS

| SMILES | TGI (HOP-92 NSCLC) | TGI (HS 578T breast) | TGI (ACHN renal) | TGI (HCT-116 colon) | TGI (HL-60(TB) leukemia) | TGI (NCI-H23 lung) | TGI (MDA-MB-435) | TGI (LOX IMVI melanoma) | TGI (DU-145 prostate) | TGI (RPMI-8226 leukemia) | TGI (SR leukemia) | TGI (UO-31 renal) | TGI (U251 CNS) |
| --- | --- | --- | --- | --- | --- | --- | --- | --- | --- | --- | --- | --- | --- |
| O=C1[C@@H](O)[C@@H]2CCCC[C@@]23CCCN13 | > 100 µM | > 100 µM | > 100 µM | > 100 µM | > 100 µM | > 100 µM | > 100 µM | > 100 µM | > 100 µM | > 100 µM | > 100 µM | > 100 µM | > 100 µM |
| O=C1/C(=C/c2ccc(O)c(O)c2)CC/C1=C\c1ccc(O)c(O)c1 | 76.1 µM | > 100 µM | 26.6 µM | > 47.8 µM | > 46.2 µM | 11.3 µM | > 100 µM | > 56.1 µM | > 100 µM | 76.3 µM | > 29.5 µM | 7.31 µM | 27.4 µM |
| Cc1cccc(C)c1N=Nc1ccc(O)c(CN(C)C)c1 | > 100 µM | > 100 µM | > 100 µM | > 100 µM | > 100 µM | > 100 µM | > 100 µM | > 100 µM | > 100 µM | > 100 µM | > 100 µM | > 100 µM | > 100 µM |
| CCC1CCC2c3c([nH]c4ccc(C)cc34)C3C(=O)N(N(C)C)C(=O)C3C2C1 (stereo unspecified) | > 100 µM | 33 µM | > 100 µM | 52.9 µM | > 46.8 µM | > 100 µM | > 33.4 µM | > 100 µM | > 100 µM | > 88.3 µM | 48.6 µM | > 100 µM | > 100 µM |
| CC(C(=O)n1ccnc1)N1c2ccccc2Sc2ccccc21 (stereo unspecified) | 79.9 µM | > 100 µM | > 100 µM | > 100 µM | > 100 µM | > 100 µM | > 100 µM | > 100 µM | > 100 µM | > 100 µM | > 100 µM | > 100 µM | > 100 µM |
| CC1(C)CCCCCCCCCC2CC2CCC(C)(C)C1=O (stereo unspecified) | 62.7 µM | 82.3 µM | 33.4 µM | 31.8 µM | 49.1 µM | > 100 µM | 55.5 µM | 34.9 µM | 40.9 µM | 75.9 µM | 53.5 µM | 36.9 µM | 33 µM |
| Cc1ccsc1C(=S)Nc1ccc(Cl)c(/C=N/OC(C)C)c1 | > 100 µM | > 100 µM | > 100 µM | > 100 µM | 34.6 µM | > 100 µM | > 100 µM | > 100 µM | > 100 µM | 34.1 µM | 48.7 µM | > 100 µM | > 100 µM |
| C=CC1(c2ccc3ccccc3c2)OCC(CC)O1 (stereo unspecified) | 75.2 µM | 77 µM | > 100 µM | > 100 µM | 23.3 µM | 96.2 µM | > 100 µM | 44.3 µM | > 100 µM | > 100 µM | 61.4 µM | > 100 µM | > 100 µM |
| C=C(Cl)C(C)(Cl)CCC(Cl)C(C)C (stereo unspecified) | > 100 µM | > 100 µM | > 100 µM | > 100 µM | > 100 µM | > 100 µM | > 100 µM | 47.6 µM | > 100 µM | > 100 µM | 64.2 µM | > 100 µM | > 100 µM |
| CC(=O)Oc1ccc2cc(-c3ccc(OC(C)=O)c(OC(C)=O)c3)c(=O)oc2c1 | 95.2 µM | > 100 µM | > 100 µM | > 100 µM | > 100 µM | > 100 µM | > 100 µM | > 100 µM | > 100 µM | > 100 µM | > 100 µM | > 100 µM | > 100 µM |
| CCC12C=CCN3CCC4(c5cc(C(c6ccc(OC)cc6)C6Cc7ccccc7N6)c(OC)cc5N(C)C4C(O)(C(=O)OC)C1O)C32 (stereo unspecified) | 8.14 µM | > 100 µM | > 100 µM | > 100 µM | 24.1 µM | > 100 µM | 80.4 µM | 36 µM | > 100 µM | 13.8 µM | 27 µM | 31.5 µM | 35.4 µM |
| O=C1CC2CC(CC3(CO3)C2)C1F (stereo unspecified) | > 100 µM | > 100 µM | > 100 µM | > 100 µM | > 100 µM | > 100 µM | > 100 µM | > 100 µM | > 100 µM | > 100 µM | > 100 µM | > 100 µM | > 100 µM |
